The source of these data is patent US5604231A, “Pharmaceutical compositions for prevention and treatment of ulcerative colitis” (priority 1995, dated 1997).

The conditions of test [1]: in words; literature; cited from earlier work.
Test [2] concerns the target T1, muscle-like nicotinic receptors (TE671/RD) (Homo sapiens, UniProt P02708+P07510+P11230+Q07001).
T1 construct: these cells express muscle-like nicotinic receptors; endogenous in cells; host or cells: TE671/RD (human embryonal rhabdomyosarcoma)
The test is described as follows: cell-based. The following applies: for Emax: TE671/RD, read-out: Muscle Effect (% nicotine).

The target in test [3] is nicotinic receptors. The test is described as follows: Determination of binding of compounds to relevant receptor sites (inhibition of L-[3H]nicotine binding, brain membrane preparations). More on the design: species or system rat (Sprague-Dawley).
Description: Rats (Sprague-Dawley) were maintained on a 12 hour light/dark cycle and were allowed free access to water and food supplied by Wayne Lab Blox, Madison, Wis. Animals used in the present studies weighed 200 to 250 g. Brain membrane preparations were obtained from brain tissue of either males or females.
Rats were killed by decapitation following anesthesia with 70% CO2. Brains were removed and placed on an ice-cold platform. […] The resulting homogenate was centrifuged at 18,000×g for 20 min. and the resulting pellet was resuspended in 20 volumes of water. After 60 min. incubation at 4° C., a new pellet was collected by centrifugation at 18,000×g for 20 min. After resuspension in 10 volumes of buffer, a new final pellet was again collected by centrifugation at 18,000×g for 20 min. Prior to each centrifugation step, the suspension was incubated at 37 ° C. for 5 min. to promote hydrolysis of endogenous acetylcholine. The final pellet was overlayered with buffer and stored at -70 ° C. On the day of the assay, that pellet was thawed, resuspended in buffer and centrifuged at 18,000×g for 20 min. The pellet obtained was resuspended in buffer to a final concentration of approximately 5 mg protein/mi. […]
The conditions of test [4]: in words; some patients; cited from earlier work.
Test [5] concerns IL-2; memory; neurotransmitter release in the CNS. As to conditions: in words; literature; cited from earlier work.
The conditions of test [6]: in words; literature; cited from earlier work. The source holds these as a separate data set.

As usually defined, the Ki is the dissociation constant of the complex between target and ligand, obtained from inhibition or displacement. High values mean weaker binding, low ones tighter binding.

SMILES strings stand for the structures.

T1 sequence (P02708 21-457): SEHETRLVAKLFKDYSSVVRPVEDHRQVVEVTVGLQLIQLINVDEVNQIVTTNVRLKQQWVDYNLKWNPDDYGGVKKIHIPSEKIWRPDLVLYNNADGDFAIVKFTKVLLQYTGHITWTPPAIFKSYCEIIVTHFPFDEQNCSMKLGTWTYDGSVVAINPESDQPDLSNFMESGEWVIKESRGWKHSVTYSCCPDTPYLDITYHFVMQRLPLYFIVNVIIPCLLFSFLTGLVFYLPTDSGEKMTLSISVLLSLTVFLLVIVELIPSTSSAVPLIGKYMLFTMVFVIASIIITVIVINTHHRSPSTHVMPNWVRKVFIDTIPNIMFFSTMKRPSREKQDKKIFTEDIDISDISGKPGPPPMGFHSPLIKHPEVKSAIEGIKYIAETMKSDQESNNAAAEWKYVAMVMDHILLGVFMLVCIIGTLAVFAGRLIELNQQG
T1 sequence (Q07001 22-517): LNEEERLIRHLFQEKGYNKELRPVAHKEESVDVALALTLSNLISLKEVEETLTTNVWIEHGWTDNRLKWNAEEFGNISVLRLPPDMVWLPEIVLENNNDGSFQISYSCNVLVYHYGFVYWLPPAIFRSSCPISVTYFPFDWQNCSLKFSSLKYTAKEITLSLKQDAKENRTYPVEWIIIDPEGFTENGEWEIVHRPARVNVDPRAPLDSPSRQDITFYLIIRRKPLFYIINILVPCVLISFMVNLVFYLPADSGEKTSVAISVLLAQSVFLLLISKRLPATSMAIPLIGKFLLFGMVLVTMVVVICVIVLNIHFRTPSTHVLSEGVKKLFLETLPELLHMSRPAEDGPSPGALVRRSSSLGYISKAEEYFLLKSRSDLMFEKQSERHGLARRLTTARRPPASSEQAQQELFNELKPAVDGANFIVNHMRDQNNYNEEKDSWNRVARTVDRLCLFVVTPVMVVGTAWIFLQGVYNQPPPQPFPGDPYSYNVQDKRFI
T1 sequence (P07510 23-517): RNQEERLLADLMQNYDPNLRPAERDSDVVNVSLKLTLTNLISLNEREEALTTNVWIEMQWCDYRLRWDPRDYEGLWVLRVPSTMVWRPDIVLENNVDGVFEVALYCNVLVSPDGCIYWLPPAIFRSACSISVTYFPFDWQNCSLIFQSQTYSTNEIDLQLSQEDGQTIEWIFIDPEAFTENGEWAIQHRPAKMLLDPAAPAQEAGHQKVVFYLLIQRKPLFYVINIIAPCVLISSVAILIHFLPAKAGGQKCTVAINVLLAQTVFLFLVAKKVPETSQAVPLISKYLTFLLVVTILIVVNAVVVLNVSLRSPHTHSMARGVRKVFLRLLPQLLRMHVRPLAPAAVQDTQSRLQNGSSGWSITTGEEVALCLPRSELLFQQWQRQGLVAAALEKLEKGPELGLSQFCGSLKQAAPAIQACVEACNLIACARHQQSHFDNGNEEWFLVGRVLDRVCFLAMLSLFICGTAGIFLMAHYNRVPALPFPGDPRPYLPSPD
T1 sequence (P11230 24-501): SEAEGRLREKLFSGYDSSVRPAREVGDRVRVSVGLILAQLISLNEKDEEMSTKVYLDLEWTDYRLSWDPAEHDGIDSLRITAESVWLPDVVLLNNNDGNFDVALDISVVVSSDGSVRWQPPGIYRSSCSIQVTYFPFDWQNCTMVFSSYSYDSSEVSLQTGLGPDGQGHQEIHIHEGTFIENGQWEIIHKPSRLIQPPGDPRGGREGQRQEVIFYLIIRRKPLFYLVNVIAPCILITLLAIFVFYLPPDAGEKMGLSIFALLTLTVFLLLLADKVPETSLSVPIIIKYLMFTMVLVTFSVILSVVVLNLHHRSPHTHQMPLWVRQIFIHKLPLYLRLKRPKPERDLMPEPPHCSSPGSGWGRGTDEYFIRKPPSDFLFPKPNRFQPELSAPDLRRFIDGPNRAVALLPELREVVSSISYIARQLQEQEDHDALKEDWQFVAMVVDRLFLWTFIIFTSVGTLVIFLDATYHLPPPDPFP

With `CN1CCC[C@H]1c1cccnc1` [C-1, (S)-(-)-nicotine], in test [1], the “treatment of various CNS disorders” value is reported as “positive effect towards the treatment of various CNS disorders”.

For the compound `CNCC/C=C/c1cncnc1` [Sample No. 2, (E)-N-methyl-4-(5-pyrimidinyl)-3-butene-1-amine], the Emax in test [2] was found to be 4%.

Regarding `COc1cncc(/C=C/CCN)c1` [Sample No. 3, (E)-4-[3-(5-methoxypyridin)yl]-3-butene-1-amine monofumarate], the Emax in test [2] stood at 0%.

For the compound `CNCCC#Cc1cccnc1` [Sample No. 4, N-Methyl-4-(3-pyridinyl)-3-butyne-1-amine], the Emax in test [2] is 7%. In test [3], this compound had an inhibition constant Ki of 58 nM.

Consider `CNCC/C=C/c1ccc(C)nc1` [Sample No. 6, (E)-N-methyl-4-[3-(6-methylpyridin)yl]-3-butene-1-amine], for which the Emax in test [2] was found to be 2%.

Regarding `CNCCCCc1cccnc1` [Sample No. 7, N-methyl-(3-pyridinyl)-butane-1-amine], in test [2], the Emax is 0%.

`CNCC/C=C/c1cccnc1` [Sample No. 8, (E)-metanicotine]: the “Muscle Effect (% nicotine)” value in test [2] (te671/rd cells) is reported as 15 % nicotine.

On to `Nc1ccc(O)c(C(=O)O)c1` [mesalamine], for which, in test [4], the “effectiveness in treatment of acute UC” value was “effective to some degree in some patients”.

With `CN1CCCC1c1cccnc1` (centres unmarked) [nicotine], in test [5], the effects upon memory result is listed as “positive effects upon memory”, the “neurotransmitter release in the CNS” value was “induce neurotransmitter release in the CNS” and the “production of IL-2” value was “inhibit the production of IL-2”. In addition, the rectal blood flow result in test [6] was “Positive effects”.

In the case of `O=C(O)c1cc(/N=N/c2ccc(S(=O)(=O)Nc3ccccn3)cc2)ccc1O` [sulfasalazine], the “effectiveness in treatment of acute UC” value in test [4] is given as “effective to some degree in some patients”.
